Read-outs that look alike come from different tables or passages of the source.

The values that follow come from patent US8987195B2 (priority 2012, dated 2015).

In test [1] the target is HCV NS3/4A protease genotype 1b (Hepatitis C virus genotype 1b, UniProt P26663). Nature of the test: HCV NS3/4A protease time-resolved fluorescence (TRF) assay, Ki against genotype 1b. It is filed as biochemical. The conditions noted are these: IC50 [gt-1b] (nM), NS3/4A genotype 1b, enzyme 0.2 nM. Summed up: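 NS3/4A enzyme was preincubated 30 min with inhibitor in 50 mM HEPES pH 7.5, 150 mM NaCl, 15% glycerol, 0.15% Triton X-100, 10 mM DTT, 0.1% PEG 8000; 25 nM europium TRF peptide substrate added, 2.5 h at room temperature. Enzyme: 0.2 nM (1b), 0.4 nM (A156T), 0.025 nM (3a). Ki from IC50 via Cheng-Prusoff.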

The next test deals with HCV genotype 1b replicon. In words: HCV replicon assay, genotype 1b replicon EC50. It is filed as cell-based, Hepatitis C virus. Conditions: Hepatitis C virus, genotype 1b replicon, read-out: EC50 [gt-1b]. Summed up: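 Replicon cells (Neo^r, some luciferase:Neo^r fusion); G418 removed at plating; compound dilution series, 24-48 h. Readout: RNA by 32P-probe hybridization/protection or TaqMan, normalized to cyclophilin A RNA, or luciferase. EC50 vs DMSO control, 4-parameter fit.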

`Cc1nc2ccc(OC(F)(F)F)cc2c2c1O[C@@]1(C[C@H]3C(=O)N[C@]4(C(=O)NS(=O)(=O)C5(C)CC5)C[C@H]4/C=C\CCCCC[C@H](NC(=O)OC4CCCC4)C(=O)N3C1)CC2(F)F` [Example 227, cyclopentyl [(2S,6S,12Z,13aS,14aR,16aS)-1′,1′-difluoro-5′-methyl-14a-{[(1-methylcyclopropyl)sulfonyl]carbamoyl}-5,16-dioxo-9′-(trifluoromethoxy)-1,1′,2′,5,6,7,8,9,10,11,13a,14,14a,15,16,16a-hexadecahydrospiro[cyclopropa[e]pyrrolo[1,2-a][1,4]diazacyclopentadecine-2,3′-pyrano[2,3-c]quinolin]-6-yl]carbamate]: in test [1] (K+ salt), the IC50 was determined as 0.043 nM. The EC50 in the test on HCV genotype 1b replicon (K+ salt) stood at 28.4 nM.
Compound `Cc1nc2ccccc2c2c1O[C@]1(CC2)C[C@H]2C(=O)N[C@]3(C(=O)NS(=O)(=O)C4(C)CC4)C[C@H]3/C=C\CCCCC[C@H](NC(=O)N(C)C)C(=O)N2C1` [Example 228, (2R,6S,12Z,13aS,14aR,16aS)-6-[(dimethylcarbamoyl)amino]-5′-methyl-N-[(1-methylcyclopropyl)sulfonyl]-5,16-dioxo-1,1′,2′,6,7,8,9,10,11,13a,14,15,16,16a-tetradecahydrospiro[cyclopropa[e]pyrrolo[1,2-a][1,4]diazacyclopentadecine-2,3′-pyrano[2,3-c]quinoline]-14a(5H)-carboxamide] gave an IC50 in test [1] of 0.025 nM. For the same compound, in the test on HCV genotype 1b replicon, the EC50 is 6.63 nM.
On the same counts, the results for `Cc1nc2ccccc2c2c1O[C@]1(CC2)C[C@H]2C(=O)N[C@]3(C(=O)NS(=O)(=O)C4(C)CC4)C[C@H]3/C=C\CCCCC[C@H](NS(C)(=O)=O)C(=O)N2C1` [Example 229, (2R,6S,12Z,13aS,14aR,16aS)-5′-methyl-N-[(1-methylcyclopropyl)sulfonyl]-6-[(methylsulfonyl)amino]-5,16-dioxo-1,1′,2′,6,7,8,9,10,11,13a,14,15,16,16a-tetradecahydrospiro[cyclopropa[e]pyrrolo[1,2-a][1,4]diazacyclopentadecine-2,3′-pyrano[2,3-c]quinoline]-14a(5H)-carboxamide] are 0.122 nM and 14.6 nM.
Turning to `Cc1nc2ccccc2c2c1O[C@]1(CC2)C[C@H]2C(=O)N[C@]3(C(=O)NS(=O)(=O)C4(C)CC4)C[C@H]3/C=C\CCCCC[C@H](NS(=O)(=O)C3CC3)C(=O)N2C1` [Example 230, (2R,6S,12Z,13aS,14aR,16aS)-6-[(cyclopropylsulfonyl)amino]-5′-methyl-N-[(1-methylcyclopropyl)sulfonyl]-5,16-dioxo-1,1′,2′,6,7,8,9,10,11,13a,14,15,16,16a-tetradecahydrospiro[cyclopropa[e]pyrrolo[1,2-a][1,4]diazacyclopentadecine-2,3′-pyrano[2,3-c]quinoline]-14a(5H)-carboxamide], the IC50 in test [1] came out at 0.265 nM. The EC50 in the test with HCV genotype 1b replicon was 57.8 nM.
For the compound `Cc1nc2ccc(Cl)cc2c2c1O[C@]1(CC2)C[C@H]2C(=O)N[C@]3(C(=O)NS(=O)(=O)C4(C)CC4)C[C@H]3/C=C\CCCCC[C@H](NC(=O)OCC3CCCC3)C(=O)N2C1` [Example 231, cyclopentylmethyl [(2R,6S,12Z,13aS,14aR,16aS)-9′-chloro-5′-methyl-14a-{[(1-methylcyclopropyl)sulfonyl]carbamoyl}-5,16-dioxo-1,1′,2′,5,6,7,8,9,10,11,13a,14,14a,15,16,16a-hexadecahydrospiro[cyclopropa[e]pyrrolo[1,2-a][1,4]diazacyclopentadecine-2,3′-pyrano[2,3-c]quinolin]-6-yl]carbamate], in test [1], the IC50 worked out at 0.024 nM. The EC50 in the test on HCV genotype 1b replicon was found to be 4.77 nM.
Turning to `Cc1nc2cc(F)c(F)cc2c2c1O[C@]1(CC2)C[C@H]2C(=O)N[C@]3(C(=O)NS(=O)(=O)C4(C)CC4)C[C@H]3/C=C\CCCCC[C@H](NC(=O)OCC3CCCC3)C(=O)N2C1` [Example 232, cyclopentylmethyl [(2R,6S,12Z,13aS,14aR,16aS)-8′,9′-difluoro-5′-methyl-14a-{[(1-methylcyclopropyl)sulfonyl]carbamoyl}-5,16-dioxo-1,1′,2′,5,6,7,8,9,10,11,13a,14,14a,15,16,16a-hexadecahydrospiro[cyclopropa[e]pyrrolo[1,2-a][1,4]diazacyclopentadecine-2,3′-pyrano[2,3-c]quinolin]-6-yl]carbamate], half-maximal inhibition in test [1] (IC50) required 0.085 nM. In the test with HCV genotype 1b replicon, the EC50 turned out to be 12.9 nM.
In test [1], `Cc1nc2cc(Cl)ccc2c2c1O[C@]1(CC2)C[C@H]2C(=O)N[C@]3(C(=O)NS(=O)(=O)C4(C)CC4)C[C@H]3/C=C\CCCCC[C@H](NC(=O)OC(C)(C)C)C(=O)N2C1` [Example 233, tert-butyl [(2R,6S,12Z,13aS,14aR,16aS)-8′-chloro-5′-methyl-14a-{[(1-methylcyclopropyl)sulfonyl]carbamoyl}-5,16-dioxo-1,1′,2′,5,6,7,8,9,10,11,13a,14,14a,15,16,16a-hexadecahydrospiro[cyclopropa[e]pyrrolo[1,2-a][1,4]diazacyclopentadecine-2,3′-pyrano[2,3-c]quinolin]-6-yl]carbamate] displayed an IC50 of 0.051 nM. The concentration giving a half-maximal response (EC50) in the test on HCV genotype 1b replicon came to 1.51 nM.
With `Cc1nc2cc(Cl)ccc2c2c1O[C@]1(CC2)C[C@H]2C(=O)N[C@]3(C(=O)NS(=O)(=O)C4(C)CC4)C[C@H]3/C=C\CCCCC[C@H](NC(=O)OCC(C)C)C(=O)N2C1` [Example 234, 2-methylpropyl [(2R,6S,12Z,13aS,14aR,16aS)-8′-chloro-5′-methyl-14a-{[(1-methylcyclopropyl)sulfonyl]carbamoyl}-5,16-dioxo-1,1′,2′,5,6,7,8,9,10,11,13a,14,14a,15,16,16a-hexadecahydrospiro[cyclopropa[e]pyrrolo[1,2-a][1,4]diazacyclopentadecine-2,3′-pyrano[2,3-c]quinolin]-6-yl]carbamate], in test [1] (K+ salt), the IC50 is 0.025 nM. The EC50 in the test on HCV genotype 1b replicon (K+ salt) was found to be 4.48 nM.
On to `Cc1nc2cc(Cl)ccc2c2c1O[C@]1(CC2)C[C@H]2C(=O)N[C@]3(C(=O)NS(=O)(=O)C4(C)CC4)C[C@H]3/C=C\CCCCC[C@H](NC(=O)OCC(C)(C)C)C(=O)N2C1` [Example 235, 2,2-dimethylpropyl [(2R,6S,12Z,13aS,14aR,16aS)-8′-chloro-5′-methyl-14a-{[(1-methylcyclopropyl)sulfonyl]carbamoyl}-5,16-dioxo-1,1′,2′,5,6,7,8,9,10,11,13a,14,14a,15,16,16a-hexadecahydrospiro[cyclopropa[e]pyrrolo[1,2-a][1,4]diazacyclopentadecine-2,3′-pyrano[2,3-c]quinolin]-6-yl]carbamate], for which the IC50 in test [1] (K+ salt) was 0.027 nM. In the test on HCV genotype 1b replicon (K+ salt), the EC50 stood at 4.31 nM.
Regarding `Cc1nc2cc(Cl)ccc2c2c1O[C@]1(CC2)C[C@H]2C(=O)N[C@]3(C(=O)NS(=O)(=O)C4(C)CC4)C[C@H]3/C=C\CCCCC[C@H](NC(=O)OC3(C)CC3)C(=O)N2C1` [Example 236, 1-methylcyclopropyl [(2R,6S,12Z,13aS,14aR,16aS)-8′-chloro-5′-methyl-14a-{[(1-methylcyclopropyl)sulfonyl]carbamoyl}-5,16-dioxo-1,1′,2′,5,6,7,8,9,10,11,13a,14,14a,15,16,16a-hexadecahydrospiro[cyclopropa[e]pyrrolo[1,2-a][1,4]diazacyclopentadecine-2,3′-pyrano[2,3-c]quinolin]-6-yl]carbamate], the IC50 in test [1] (K+ salt) is 0.056 nM. Moreover, the EC50 with HCV genotype 1b replicon (K+ salt) was 7.24 nM.
Compound `Cc1nc2cc(Cl)ccc2c2c1O[C@]1(CC2)C[C@H]2C(=O)N[C@]3(C(=O)NS(=O)(=O)C4(C)CC4)C[C@H]3/C=C\CCCCC[C@H](NC(=O)OC(C)C)C(=O)N2C1` [Example 237, propan-2-yl [(2R,6S,12Z,13aS,14aR,16aS)-8′-chloro-5′-methyl-14a-{[(1-methylcyclopropyl)sulfonyl]carbamoyl}-5,16-dioxo-1,1′,2′,5,6,7,8,9,10,11,13a,14,14a,15,16,16a-hexadecahydrospiro[cyclopropa[e]pyrrolo[1,2-a][1,4]diazacyclopentadecine-2,3′-pyrano[2,3-c]quinolin]-6-yl]carbamate] yielded an IC50 in test [1] of 0.04 nM. In the test with HCV genotype 1b replicon, the EC50 was determined as 5.72 nM.
Consider `Cc1nc2cc(Cl)ccc2c2c1O[C@]1(CC2)C[C@H]2C(=O)N[C@]3(C(=O)NS(=O)(=O)C4(C)CC4)C[C@H]3/C=C\CCCCC[C@H](NC(=O)OC3CCCC3)C(=O)N2C1` [Example 238, cyclopentyl [(2R,6S,12Z,13aS,14aR,16aS)-8′-chloro-5′-methyl-14a-{[(1-methylcyclopropyl)sulfonyl]carbamoyl}-5,16-dioxo-1,1′,2′,5,6,7,8,9,10,11,13a,14,14a,15,16,16a-hexadecahydrospiro[cyclopropa[e]pyrrolo[1,2-a][1,4]diazacyclopentadecine-2,3′-pyrano[2,3-c]quinolin]-6-yl]carbamate], for which half-maximal inhibition in test [1] (IC50) required 0.02 nM. The EC50 in the test with HCV genotype 1b replicon is 7.72 nM.
The compound `Cc1nc2cc(Cl)ccc2c2c1O[C@]1(CC2)C[C@H]2C(=O)N[C@]3(C(=O)NS(=O)(=O)C4(C)CC4)C[C@H]3/C=C\CCCCC[C@H](NC(=O)OC3CCC3)C(=O)N2C1` [Example 239, cyclobutyl [(2R,6S,12Z,13aS,14aR,16aS)-8′-chloro-5′-methyl-14a-{[(1-methylcyclopropyl)sulfonyl]carbamoyl}-5,16-dioxo-1,1′,2′,5,6,7,8,9,10,11,13a,14,14a,15,16,16a-hexadecahydrospiro[cyclopropa[e]pyrrolo[1,2-a][1,4]diazacyclopentadecine-2,3′-pyrano[2,3-c]quinolin]-6-yl]carbamate] displayed a half-maximal inhibitory concentration (IC50) in test [1] of 0.068 nM. Besides, in the test on HCV genotype 1b replicon, the EC50 was found to be 5.16 nM.
